Legend:
[1] = Liquid
[2] = excess molar enthalpy (molar enthalpy of mixing); xn = mol fraction of the nth substance listed; settings: Liquid

CN(C)CCO [2-(N,N-dimethylamino)ethanol]
molar volume [m3/mol], [1]
Settings	298.15 K	313.15 K	328.15 K
100 kPa	0.0001009	0.0001024	0.0001039
10000 kPa	0.0001009	0.0001024	0.0001039

CN(C)CCO [2-(N,N-dimethylamino)ethanol] + CC(C)O
excess molar enthalpy [kcal/mol], [2]
Settings	298.2 K	313.2 K	328.2 K
100 kPa, x1 = 0.0496	–	-0.00404	–
100 kPa, x1 = 0.0499	–	–	-0.00858
100 kPa, x1 = 0.1008	0.00387	-0.00413	–
100 kPa, x1 = 0.1014	–	–	-0.0122
100 kPa, x1 = 0.1502	0.00667	-0.00304	–
100 kPa, x1 = 0.1511	–	–	-0.0135
100 kPa, x1 = 0.1994	0.00889	-0.00167	–
100 kPa, x1 = 0.2005	–	–	-0.0137
100 kPa, x1 = 0.2501	0.0103	-0.000645	–
100 kPa, x1 = 0.2513	–	–	-0.0135
100 kPa, x1 = 0.3005	0.0112	0.000215	–
100 kPa, x1 = 0.3018	–	–	-0.0132
100 kPa, x1 = 0.3504	0.0115	0.000693	–
100 kPa, x1 = 0.3519	–	–	-0.013
100 kPa, x1 = 0.3999	0.0114	0.000813	–
100 kPa, x1 = 0.4015	–	–	-0.0127
100 kPa, x1 = 0.4507	0.0109	0.000717	–
100 kPa, x1 = 0.4524	–	–	-0.0124
100 kPa, x1 = 0.501	0.01	0.000478	–
100 kPa, x1 = 0.5026	–	–	-0.012
100 kPa, x1 = 0.5505	0.00891	-0.00012	–
100 kPa, x1 = 0.5522	–	–	-0.0115
100 kPa, x1 = 0.5993	0.00784	-0.000287	–
100 kPa, x1 = 0.6009	–	–	-0.0109
100 kPa, x1 = 0.6508	–	–	-0.0103
10000 kPa, x1 = 0.0499	–	-0.0044	-0.00937
10000 kPa, x1 = 0.0998	0.00325	-0.00464	-0.0129
10000 kPa, x1 = 0.1494	–	-0.00457	–
10000 kPa, x1 = 0.2005	0.00825	-0.00237	-0.0145
10000 kPa, x1 = 0.2496	0.00958	-0.00134	-0.0143
10000 kPa, x1 = 0.3	0.0103	-0.000598	-0.0139
10000 kPa, x1 = 0.35	0.0107	-0.000167	-0.0135
10000 kPa, x1 = 0.3995	0.0107	-2.39e-05	-0.0131
10000 kPa, x1 = 0.4504	0.0103	-9.56e-05	-0.0127
10000 kPa, x1 = 0.5006	0.0097	-0.000311	-0.0123
10000 kPa, x1 = 0.5501	0.00889	-0.000621	-0.0118
10000 kPa, x1 = 0.6009	0.00789	–	-0.0111
10000 kPa, x1 = 0.6508	–	–	-0.0109
